Key:
[1] = Cmax in NOD:SCID mouse at 30 mg/kg, ip administered for 24 hrs by LC-MS/MS analysis; assay type: ADME, organism-based; conditions: in vivo
[2] = Half life in NOD:SCID mouse at 30 mg/kg, ip administered for 24 hrs by LC-MS/MS analysis; assay type: ADME, organism-based; conditions: in vivo
[3] = AUC (0 to infinity) in NOD:SCID mouse at 30 mg/kg, ip administered for 24 hrs by LC-MS/MS analysis; assay type: ADME, organism-based; conditions: in vivo
K562 = assay: cells; conditions: Homo sapiens, K562, 4 h
NOMO-1 = assay: Antiproliferative activity against human NOMO-1 cells harboring MLL-AF9 assessed as inhibition of cell growth incubated for […] by CellTiter-Aqueous One assay; assay type: functional, cell-based; conditions: NOMO-1, 4 h
[4] = target: Sodium-dependent dopamine transporter (Homo sapiens, UniProt Q01959); assay: Inhibition of human DAT by scintillation proximity assay
Sodium-dependent dopamine transporter, sequence (Q01959 whole entry): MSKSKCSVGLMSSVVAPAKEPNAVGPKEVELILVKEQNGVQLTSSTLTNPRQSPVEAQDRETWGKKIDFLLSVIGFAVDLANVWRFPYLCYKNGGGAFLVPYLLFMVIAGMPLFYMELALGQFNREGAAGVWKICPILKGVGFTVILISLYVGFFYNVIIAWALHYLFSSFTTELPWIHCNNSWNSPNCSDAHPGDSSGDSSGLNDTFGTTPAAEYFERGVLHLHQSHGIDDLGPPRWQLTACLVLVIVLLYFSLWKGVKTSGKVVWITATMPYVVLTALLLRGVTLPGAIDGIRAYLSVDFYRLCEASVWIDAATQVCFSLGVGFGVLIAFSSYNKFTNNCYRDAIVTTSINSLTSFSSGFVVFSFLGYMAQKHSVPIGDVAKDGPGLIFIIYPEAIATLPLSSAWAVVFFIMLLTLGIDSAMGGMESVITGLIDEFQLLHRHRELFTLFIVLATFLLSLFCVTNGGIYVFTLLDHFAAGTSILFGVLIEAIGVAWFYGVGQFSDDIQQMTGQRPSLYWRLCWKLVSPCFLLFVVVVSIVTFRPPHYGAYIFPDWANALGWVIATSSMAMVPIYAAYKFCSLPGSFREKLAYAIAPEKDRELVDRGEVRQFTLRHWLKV

[5] = target: Serine/threonine-protein kinase Chk1 (Homo sapiens, UniProt O14757); assay: Inhibition of CHEK1 (unknown origin) incubated for 1 hr by colloidal coomassie staining based LC-MS/MS analysis
[6] = target: 5-hydroxytryptamine receptor 2A (Homo sapiens, UniProt P28223); assay: Inhibition of human 5-HT2A by intracellular Ca2+ luminescence assay; assay type: functional, cell-based
[7] = target: Tyrosine-protein kinase Lck (Homo sapiens, UniProt P06239); assay: Inhibition of His6-tagged human LCK at pH 7.4 incubated for 60 mins by Alexa Fluor 488 staining based fluorescence anisotropy analysis
Tyrosine-protein kinase Lck, sequence (P06239 whole entry): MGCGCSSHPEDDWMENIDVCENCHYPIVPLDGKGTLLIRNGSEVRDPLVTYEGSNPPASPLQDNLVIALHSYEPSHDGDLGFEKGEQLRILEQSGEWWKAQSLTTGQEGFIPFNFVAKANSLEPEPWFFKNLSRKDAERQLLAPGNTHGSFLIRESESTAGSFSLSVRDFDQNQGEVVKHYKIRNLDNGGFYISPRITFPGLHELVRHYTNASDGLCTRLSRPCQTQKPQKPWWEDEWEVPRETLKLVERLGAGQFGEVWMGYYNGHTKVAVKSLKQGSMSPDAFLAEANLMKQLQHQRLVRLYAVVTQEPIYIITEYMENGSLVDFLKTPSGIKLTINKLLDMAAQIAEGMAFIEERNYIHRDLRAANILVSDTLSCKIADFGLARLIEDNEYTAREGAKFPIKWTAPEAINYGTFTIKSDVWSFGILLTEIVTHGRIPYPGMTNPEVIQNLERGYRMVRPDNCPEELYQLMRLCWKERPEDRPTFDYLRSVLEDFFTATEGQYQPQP

[8] = target: Sodium channel protein type 5 subunit alpha (Homo sapiens, UniProt Q14524); assay: Inhibition of human NaV1.5 by blocker ionworks assay
Mu-type opioid receptor = Mu-type opioid receptor (Homo sapiens, UniProt P35372); assay: Inhibition of human OPRM1 in presence of GTPgS
Mu-type opioid receptor, sequence (P35372 whole entry): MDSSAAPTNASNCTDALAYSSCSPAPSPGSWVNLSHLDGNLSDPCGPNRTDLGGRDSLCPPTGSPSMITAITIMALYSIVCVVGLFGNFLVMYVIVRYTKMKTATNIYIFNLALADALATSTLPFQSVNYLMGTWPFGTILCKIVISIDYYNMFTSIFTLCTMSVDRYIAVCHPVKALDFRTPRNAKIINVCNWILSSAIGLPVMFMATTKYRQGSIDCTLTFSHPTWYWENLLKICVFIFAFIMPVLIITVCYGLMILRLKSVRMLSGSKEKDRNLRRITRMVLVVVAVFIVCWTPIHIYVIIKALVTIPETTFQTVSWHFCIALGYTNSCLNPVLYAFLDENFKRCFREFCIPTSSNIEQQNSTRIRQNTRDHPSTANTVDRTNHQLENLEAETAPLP

[9] = target: Acetylcholine receptor subunit alpha (Homo sapiens, UniProt P02708); assay: Inhibition of human alpha 1 nAChR by intracellular Ca2+ fluorescence assay; assay type: cell-based
MV4-11 = assay: Antiproliferative activity against human MV4-11 cells assessed as inhibition of cell growth incubated for 72 hrs by CellTiter-Glo assay; assay type: functional, cell-based
[10] = target: 3',5'-cyclic-AMP phosphodiesterase 4B (Homo sapiens, UniProt Q07343); assay: Inhibition of human PDE4B by luminescence assay
[11] = target: Glycogen synthase kinase-3 beta (Homo sapiens, UniProt P49841); assay: Inhibition of His6-tagged human GSK3beta at pH 7.4 incubated for 60 mins by Alexa Fluor 488 staining based fluorescence anisotropy analysis
[12] = target: Cyclin-dependent kinase 2 (Homo sapiens, UniProt P24941); assay: Inhibition of CDK2 (unknown origin) incubated for 1 hr by colloidal coomassie staining based LC-MS/MS analysis
[13] = target: Serotonin 3 (5-HT3) receptor; assay: Inhibition of human 5-HT3 by intracellular Ca2+ fluorescence assay; assay type: cell-based
[14] = target: Potassium voltage-gated channel subfamily A member 5 (Homo sapiens, UniProt P22460); assay: Inhibition of human Kv1.5 by blocker ionworks assay
Potassium voltage-gated channel subfamily A member 5, sequence (P22460 whole entry): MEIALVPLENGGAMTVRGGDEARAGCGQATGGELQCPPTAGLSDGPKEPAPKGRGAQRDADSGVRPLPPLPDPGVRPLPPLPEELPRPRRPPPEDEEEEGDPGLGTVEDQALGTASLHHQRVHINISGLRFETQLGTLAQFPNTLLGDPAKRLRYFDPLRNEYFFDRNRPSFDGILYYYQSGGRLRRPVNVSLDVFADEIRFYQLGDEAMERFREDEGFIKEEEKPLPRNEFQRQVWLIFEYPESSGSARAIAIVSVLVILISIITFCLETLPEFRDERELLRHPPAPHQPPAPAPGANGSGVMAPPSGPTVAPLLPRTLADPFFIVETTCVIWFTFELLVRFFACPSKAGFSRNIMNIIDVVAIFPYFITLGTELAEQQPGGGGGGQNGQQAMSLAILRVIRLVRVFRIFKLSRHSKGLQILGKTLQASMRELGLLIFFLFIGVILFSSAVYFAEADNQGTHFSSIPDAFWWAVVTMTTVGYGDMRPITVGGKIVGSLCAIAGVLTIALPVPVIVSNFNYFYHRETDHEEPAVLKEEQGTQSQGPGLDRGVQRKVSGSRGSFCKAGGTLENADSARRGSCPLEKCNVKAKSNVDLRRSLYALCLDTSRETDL

Aurora kinase B = Aurora kinase B (Homo sapiens, UniProt Q96GD4); assay: Inhibition of His6-tagged human Aurora B kinase at pH 7.4 incubated for 60 mins by Alexa Fluor 488 staining based fluorescence anisotropy analysis
in vivo = conditions: NOD:SCID, mouse, ip, 30 mg/kg
[15] = target: 5-hydroxytryptamine receptor 1B (Homo sapiens, UniProt P28222); assay: Inhibition of human 5-HT1B in presence of GTPgS
Histamine H1 receptor = Histamine H1 receptor (Homo sapiens, UniProt P35367); assay: Inhibition of human HRH1 by intracellular Ca2+ luminescence assay; assay type: functional, cell-based
Histamine H1 receptor, sequence (P35367 whole entry): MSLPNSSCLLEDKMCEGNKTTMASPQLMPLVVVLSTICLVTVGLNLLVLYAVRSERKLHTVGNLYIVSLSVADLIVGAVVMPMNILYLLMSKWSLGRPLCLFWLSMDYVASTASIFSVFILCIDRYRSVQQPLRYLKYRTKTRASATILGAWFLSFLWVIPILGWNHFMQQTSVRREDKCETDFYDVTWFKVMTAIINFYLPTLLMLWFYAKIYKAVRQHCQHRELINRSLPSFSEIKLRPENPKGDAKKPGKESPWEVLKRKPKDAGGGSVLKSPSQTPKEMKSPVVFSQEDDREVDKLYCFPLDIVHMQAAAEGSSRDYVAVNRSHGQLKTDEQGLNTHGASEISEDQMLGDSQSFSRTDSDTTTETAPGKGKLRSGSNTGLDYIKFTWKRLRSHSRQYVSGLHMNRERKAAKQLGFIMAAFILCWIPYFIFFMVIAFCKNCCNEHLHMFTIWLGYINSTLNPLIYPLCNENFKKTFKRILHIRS

[16] = target: Nucleoside diphosphate kinase A/B (Homo sapiens, UniProt P15531+P22392); assay: Inhibition of NME1/NME2 (unknown origin) incubated for 1 hr by colloidal coomassie staining based LC-MS/MS analysis; assay type: protein assay
D(1A) dopamine receptor = D(1A) dopamine receptor (Homo sapiens, UniProt P21728); assay: Inhibition of His6-tagged human dopamine 1 receptor […] incubated for 1 hr by TR-FRET assay
[17] = target: Prostaglandin G/H synthase 2 (Homo sapiens, UniProt P35354); assay: Inhibition of human COX-2 by FLINT assay
[18] = target: Muscarinic acetylcholine receptor M1 (Homo sapiens, UniProt P11229); assay: Inhibition of human M1 by intracellular Ca2+ fluorescence assay; assay type: functional, cell-based
Muscarinic acetylcholine receptor M1, sequence (P11229 whole entry): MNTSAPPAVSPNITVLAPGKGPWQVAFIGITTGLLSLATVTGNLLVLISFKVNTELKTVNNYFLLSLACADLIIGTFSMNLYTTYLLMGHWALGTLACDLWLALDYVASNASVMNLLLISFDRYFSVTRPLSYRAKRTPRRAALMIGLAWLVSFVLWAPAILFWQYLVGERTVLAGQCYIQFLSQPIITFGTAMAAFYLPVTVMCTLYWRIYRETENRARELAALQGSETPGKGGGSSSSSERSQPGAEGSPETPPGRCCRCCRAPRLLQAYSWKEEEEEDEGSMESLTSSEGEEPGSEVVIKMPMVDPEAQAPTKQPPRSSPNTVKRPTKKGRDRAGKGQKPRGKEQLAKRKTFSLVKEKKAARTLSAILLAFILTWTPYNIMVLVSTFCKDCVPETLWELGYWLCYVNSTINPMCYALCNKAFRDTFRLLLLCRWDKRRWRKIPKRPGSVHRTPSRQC

[19] = target: Kappa-type opioid receptor (Homo sapiens, UniProt P41145); assay: Inhibition of human OPRK1 in presence of GTPgS
Kappa-type opioid receptor, sequence (P41145 whole entry, canonical isoform): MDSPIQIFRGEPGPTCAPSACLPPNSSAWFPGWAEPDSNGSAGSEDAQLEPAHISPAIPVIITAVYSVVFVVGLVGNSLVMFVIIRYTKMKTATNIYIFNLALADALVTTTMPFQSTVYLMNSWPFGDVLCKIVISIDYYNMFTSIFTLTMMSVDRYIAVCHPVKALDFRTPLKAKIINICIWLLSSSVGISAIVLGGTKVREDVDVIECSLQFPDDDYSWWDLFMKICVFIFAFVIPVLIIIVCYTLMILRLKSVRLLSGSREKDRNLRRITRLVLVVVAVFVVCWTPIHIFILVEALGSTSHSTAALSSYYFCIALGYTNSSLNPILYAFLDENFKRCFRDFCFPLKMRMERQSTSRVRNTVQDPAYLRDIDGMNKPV

[20] = target: Phosphatidylinositol 4,5-bisphosphate 3-kinase catalytic subunit gamma isoform (Homo sapiens, UniProt P48736); assay: Inhibition of His6-tagged human PI3K-gamma […] incubated for 1 hr by TR-FRET assay
[21] = target: Solute carrier organic anion transporter family member 1B1 (Homo sapiens, UniProt Q9Y6L6); assay: Inhibition of human OATP1B1 by FLINT imaging analysis
[22] = Cmax in NOD:SCID mouse at 30 mg/kg, ip administered for 36 hrs by LC-MS/MS analysis; assay type: ADME, organism-based; conditions: in vivo
[23] = target: Voltage-gated potassium channel, IKs; KCNQ1(Kv7.1)/KCNE1(MinK) (Homo sapiens, UniProt P15382+P51787); assay: Inhibition of human KCNQ1/KCNE1 by blocker ionworks assay; assay type: protein-complex assay
Vasopressin V1a receptor = Vasopressin V1a receptor (Homo sapiens, UniProt P37288); assay: Inhibition of human V1a by intracellular Ca2+ fluorescence assay; assay type: functional, cell-based
Vasopressin V1a receptor, sequence (P37288 whole entry): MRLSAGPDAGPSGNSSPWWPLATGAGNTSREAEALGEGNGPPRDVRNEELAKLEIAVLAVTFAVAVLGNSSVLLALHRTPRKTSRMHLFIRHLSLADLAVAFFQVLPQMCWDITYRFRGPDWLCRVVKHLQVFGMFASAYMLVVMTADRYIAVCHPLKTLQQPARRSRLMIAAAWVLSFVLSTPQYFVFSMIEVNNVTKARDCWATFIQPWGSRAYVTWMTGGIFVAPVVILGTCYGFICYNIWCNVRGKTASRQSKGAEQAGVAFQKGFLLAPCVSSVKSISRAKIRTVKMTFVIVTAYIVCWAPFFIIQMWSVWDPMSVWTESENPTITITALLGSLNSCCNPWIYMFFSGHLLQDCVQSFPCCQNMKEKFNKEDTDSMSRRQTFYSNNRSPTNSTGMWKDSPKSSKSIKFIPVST

[24] = target: Muscarinic acetylcholine receptor M2 (Homo sapiens, UniProt P08172); assay: Inhibition of human M2 by intracellular Ca2+ fluorescence assay; assay type: functional, cell-based
Substance-P receptor = Substance-P receptor (Homo sapiens, UniProt P25103); assay: Inhibition of human NK1 by intracellular Ca2+ luminescence assay; assay type: functional, cell-based
[25] = target: Alpha-1B adrenergic receptor (Homo sapiens, UniProt P35368); assay: Inhibition of human adrenergic alpha 1B by intracellular Ca2+ fluorescence assay; assay type: functional, cell-based
Alpha-1B adrenergic receptor, sequence (P35368 whole entry): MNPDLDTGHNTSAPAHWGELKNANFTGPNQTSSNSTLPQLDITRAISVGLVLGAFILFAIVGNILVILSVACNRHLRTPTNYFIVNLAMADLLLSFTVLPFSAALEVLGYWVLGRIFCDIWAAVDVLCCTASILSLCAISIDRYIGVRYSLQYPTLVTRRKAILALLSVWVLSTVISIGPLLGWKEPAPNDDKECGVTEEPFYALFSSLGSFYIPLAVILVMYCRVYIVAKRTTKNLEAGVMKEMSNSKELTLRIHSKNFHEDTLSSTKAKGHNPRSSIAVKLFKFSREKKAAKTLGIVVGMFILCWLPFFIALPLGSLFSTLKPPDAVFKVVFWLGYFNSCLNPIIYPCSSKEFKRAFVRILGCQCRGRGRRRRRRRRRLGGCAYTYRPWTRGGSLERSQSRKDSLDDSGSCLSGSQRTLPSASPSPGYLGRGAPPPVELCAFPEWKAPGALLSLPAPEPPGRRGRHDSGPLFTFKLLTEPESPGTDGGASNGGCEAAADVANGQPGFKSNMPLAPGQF

[26] = target: Voltage-dependent L-type calcium channel subunit alpha-1C (Homo sapiens, UniProt Q13936); assay: Inhibition of human CaV1.2 by intracellular Ca2+ fluorescence assay; assay type: cell-based
[27] = AUC (0 to infinity) in NOD:SCID mouse at 30 mg/kg, ip administered for 36 hrs by LC-MS/MS analysis; assay type: ADME, organism-based; conditions: in vivo
D(2) dopamine receptor = D(2) dopamine receptor (Homo sapiens, UniProt P14416); assay: Inhibition of human dopamine 2 receptor in presence of GTPgS
D(2) dopamine receptor, sequence (P14416 whole entry): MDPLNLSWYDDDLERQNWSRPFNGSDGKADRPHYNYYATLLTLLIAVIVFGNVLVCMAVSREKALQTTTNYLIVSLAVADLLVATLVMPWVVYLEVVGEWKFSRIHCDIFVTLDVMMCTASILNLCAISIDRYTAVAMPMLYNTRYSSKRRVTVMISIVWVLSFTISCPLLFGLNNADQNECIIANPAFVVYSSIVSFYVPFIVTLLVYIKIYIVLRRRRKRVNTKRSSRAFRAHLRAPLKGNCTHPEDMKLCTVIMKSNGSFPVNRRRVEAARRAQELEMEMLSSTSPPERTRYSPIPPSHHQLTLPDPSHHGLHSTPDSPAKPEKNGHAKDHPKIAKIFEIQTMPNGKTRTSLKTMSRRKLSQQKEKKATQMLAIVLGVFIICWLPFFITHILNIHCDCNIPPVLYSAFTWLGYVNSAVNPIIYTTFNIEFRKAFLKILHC

[28] = target: Beta-2 adrenergic receptor (Homo sapiens, UniProt P07550); assay: Inhibition of human beta2 adrenoceptor […] incubated for 1 hr by TR-FRET assay
[29] = target: 5-hydroxytryptamine receptor 2C (Homo sapiens, UniProt P28335); assay: Inhibition of human 5-HT2C by intracellular Ca2+ luminescence assay; assay type: functional, cell-based

Cc1sc2c(c1C)C(c1ccc(Cl)cc1)=N[C@@H](CC(=O)OC(C)(C)C)c1nnc(C)n1-2
Cmax [1]: 840 nM
half-life [2]: 138 min
AUC [3]: 2 µM·h

O=C(Nc1c[nH]nc1-c1nc2ccc(CN3CCOCC3)cc2[nH]1)NC1CC1 [AT-9283]
IC50 (K562): 260 nM
IC50 (NOMO-1): > 10 µM

CCNC(=O)C[C@@H]1N=C(c2ccc(Cl)cc2)c2cc(OC)ccc2-n2c(C)nnc21 [MOLIBRESIB]
IC50 [4]: 79 µM
IC50 [5]: > 10 µM
IC50 [6]: > 40 µM
IC50 [7]: > 25 µM
IC50 [8]: > 100 µM
IC50 (Mu-type opioid receptor): > 100 µM
IC50 [9]: 15.8 µM
IC50 (MV4-11; Homo sapiens, MV4-11, 72 h): 102 nM
IC100 (MV4-11; time 72 hrs): 723 nM
IC50 [10]: > 25 µM
IC50 [11]: > 25 µM
IC50 [12]: ≥ 10 µM
IC50 [13]: > 50 µM
IC50 [14]: > 50 µM
IC50 (Aurora kinase B): > 25 µM
half-life at 36 h (in vivo): 96 min
IC50 [15]: > 100 µM
IC50 (Histamine H1 receptor): > 40 µM
IC50 [16]: > 10 µM
IC50 (D(1A) dopamine receptor): > 31.6 µM
IC50 [17]: > 100 µM
IC50 [18]: > 15.1 µM
IC50 [19]: > 100 µM
IC50 [20]: > 25 µM
IC50 [21]: 12.6 µM
Cmax [22]: 21.9 µM
IC50 [23]: > 25 µM
IC50 (Vasopressin V1a receptor): > 50 µM
IC50 [24]: > 15.8 µM
IC50 (Substance-P receptor): > 40 µM
IC50 [25]: > 40 µM
IC50 [26]: > 15.8 µM
AUC [27]: 40.3 µM·h
IC50 (D(2) dopamine receptor): > 100 µM
IC50 [28]: > 31.6 µM
IC50 [29]: > 40 µM

From ChEMBL document CHEMBL5696440, “Inhibition of BET recruitment to chromatin as an effective treatment for MLL-fusion leukaemia” (Nature, 2011)
